According to patent publication US10981902B2 (Merck Sharp & Dohme Corp., priority 2017, dated 2021):

molecular target: T1, human M4 muscarinic acetylcholine receptor (Homo sapiens, UniProt P08173); assay: human FLIPR-based M4 PAM assay (calcium mobilization, CHO-K1 cells with human M4 receptor and Gαqi5); assay type: cell-based; details: inflection point (IP) of dose response curve, acetylcholine added at 20% of maximum response, read-out: M4 FLIPPR Hu IP
T1 construct: expressed in transfected cells; host or cells: CHO-K1
T1 sequence (P08173 1-479): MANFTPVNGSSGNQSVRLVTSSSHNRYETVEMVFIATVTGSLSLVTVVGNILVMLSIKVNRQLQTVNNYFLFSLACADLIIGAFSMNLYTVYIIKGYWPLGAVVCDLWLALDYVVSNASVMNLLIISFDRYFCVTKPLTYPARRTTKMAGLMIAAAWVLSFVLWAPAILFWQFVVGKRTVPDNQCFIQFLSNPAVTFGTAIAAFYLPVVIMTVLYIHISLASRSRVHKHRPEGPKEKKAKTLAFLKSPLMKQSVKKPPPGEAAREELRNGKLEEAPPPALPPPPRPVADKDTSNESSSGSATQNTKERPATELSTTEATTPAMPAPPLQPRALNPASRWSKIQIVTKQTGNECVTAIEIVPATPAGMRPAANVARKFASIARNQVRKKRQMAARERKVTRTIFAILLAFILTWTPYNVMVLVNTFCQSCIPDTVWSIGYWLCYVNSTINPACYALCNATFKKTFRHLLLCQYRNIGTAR
Description: In a typical experiment the M4 muscarinic acetylcholine receptor modulating activity of the compounds of the present invention was determined in accordance with the following experimental method. CHO-K1 cells stably transfected with human M4 receptor and chimeric G-protein Gαqi5 (Coward P, et al., Analytical Biochemistry, 270:242-248 (1999)) are thawed from liquid N2 storage, resuspended in growth medium, plated in black, clear bottom 384 well plates, and incubated 16-20 hours at 37° C., 5% CO2. On the day of assay, growth medium is removed, the cells are washed 2 times with wash buffer, and cells are incubated in dye loading buffer at 37° C., 5% CO2 for ˜1 hour. Following dye loading the cell plates are placed in a FLIPR Tetra instrument and while monitoring dye fluorescence (excitation […]), 10 uL of test substance at increasing concentrations is added, and fluorescence values are recorded for 4 min. Next, 10 uL of acetylcholine is added (final concentration calculated so as to achieve 20% of the maximum acetycholine response), and the fluorescence reading is continued for 3.5 min. In some cases, a third addition of acetylcholine (final concentration calculated to achieve 70% of the maximal acetylcholine response) is performed. The resulting dose response curves are fit to a 4 parameter logistic equation and the final result is determined as the inflection point (IP) of the curve
CHO-K1 cells stably transfected with human M4 receptor and chimeric G-protein Gαqi5 are thawed from liquid N2 storage, resuspended in growth medium, plated in black, clear bottom 384 well plates, and incubated 16-20 hours at 37° C., 5% CO2.
On the day of assay, growth medium is removed, the cells are washed 2 times with wash buffer, and cells are incuabted in dye loading buffer at 37° C., 5% CO2 for ˜1 h. Following dye loading the cell plates are placed in a FLIPR Tetra instrument and while monitoring dye fluorescence ([…]), 10 uL of test substance at increasing concentrations is added, and fluorescence values are recorded for 4 min. Next, 10 uL of acetylcholine is added (final concentration calculated so as to achieve 20% of the maximum acetycholine response), and the fluorescence reading is continued for 3.5 min. In some cases, a third addition of acetylcholine (final concentration calculated to achieve 70% of the maximal acetylcholine response) is performed.

Row | EC50 | SMILES
1 | 136 nM | CC(C)(Cc1ncc(-c2ccc(C(F)F)nc2-c2ccc3cccnc3c2)o1)C(F)(F)F [Example 24, 5-(6-(difluoro-methyl)-2-(quinolin-7-yl)pyridin-3-yl)-2-(3,3,3-trifluoro-2,2-dimethylpropyl)-oxazole]
2 | 35 nM | CC(C)(Cc1ncc(-c2ccc(C(F)F)nc2-c2ccn3ccnc3c2)o1)C(F)(F)F [Example 25, 5-(6-(difluoromethyl)-2-(imidazo[1,2-a]-pyridin-7-yl)pyridin-3-yl)-2-(3,3,3-trifluoro-2,2-dimethylpropyl)-oxazole]
3 | 63 nM | CN1Cc2ccc(-c3nc(C(F)F)ccc3-c3cnc(CC(C)(C)C(F)(F)F)o3)cc2C1=O [Example 26, 6-(6-(difluoromethyl)-3-(2-(3,3,3-trifluoro-2,2-dimethylpropyl)-oxazol-5-yl)pyridin-2-yl)-2-methylisoindolin-1-one]
4 | 113 nM | CC(C)(C)Cc1ncc(-c2cc(F)cnc2-c2ccn3ccnc3c2)o1 [Example 27, 5-(5-fluoro-2-(imidazo[1,2-a]-pyridin-7-yl)-pyridin-3-yl)-2-neopentyloxazole]
5 | 122 nM | CC(C)(Cc1ncc(-c2ccc(C#N)nc2-c2ccn3ccnc3c2)o1)C(F)(F)F [Example 28, 6-(imidazo[1,2-a]-pyridin-7-yl)-5-(2-(3,3,3-trifluoro-2,2-dimethylpropyl)-oxazol-5-yl)picolino-nitrile]
6 | 30 nM | N#Cc1ccc(-c2cnc(CC3CCC3)o2)c(-c2ccc3cccnc3c2)n1 [Example 29, 5-(2-(cyclobutyl-methyl)oxazol-5-yl)-6-(quinolin-7-yl)-picolinonitrile]
7 | 86 nM | CC(C)(C)Cc1ncc(-c2ccc(C(F)F)nc2-c2ccn3cnnc3c2)o1 [Example 30, 5-(2-([1,2,4]triazolo-[4,3-a]pyridin-7-yl)-6-(difluoromethyl)-pyridin-3-yl)-2-neo-pentyloxazole]
8 | 43 nM | CC(C)CCc1ncc(-c2ccc(C#N)nc2-c2ccc3cccnc3c2)o1 [Example 31, 5-(2-isopentyloxazol-5-yl)-6-(quinolin-7-yl)picolinonitrile]
9 | 69 nM | Cc1cn2ccc(-c3nc(C#N)ccc3-c3cnc(CC(C)(C)C)o3)cc2n1 [Example 32, 6-(2-methylimidazo-[1,2-a]pyridin-7-yl)-5-(2-neopentyloxazol-5-yl)picolinonitrile]
10 | 72 nM | Cc1cn2ccc(-c3nc(C#N)ccc3-c3cnc(CC(C)(C)C(F)(F)F)o3)cc2n1 [Example 33, 6-(2-methylimidazol-[1,2-a]pyridin-7-yl)-5-(2-(3,3,3-trifluoro-2,2-dimethylpropyl)-oxazol-5-yl)picolino-nitrile]
11 | 107 nM | Cc1nc2cc(-c3nc(C#N)ccc3-c3cnc(CC(C)(C)C)o3)ccn2n1 [Example 34, 6-(2-methyl[1,2,4]-triazolo[1,5-a]pyridin-7-yl)-5-(2-neopentyl-oxazol-5-yl)picolino-nitrile]
12 | 130 nM | Cc1nnc2cc(-c3nc(C#N)ccc3-c3cnc(CC(C)(C)C)o3)ccn12 [Example 35, 6-(3-methyl-[1,2,4]-triazolo[4,3-a]pyridin-7-yl)-5-(2-neopentyl-oxazol-5-yl)picolino-nitrile]
13 | 75 nM | CC(C)(C)Cc1ncc(-c2ccc3cncn3c2-c2ccn3ccnc3c2)o1 [Example 36, 5-(5-(imidazo[1,2-a]-pyridin-7-yl)imidazo-[1,5-a]pyridin-6-yl)-2-neopentyloxazole]
14 | 78 nM | COCc1cn2ccc(-c3nc(C#N)ccc3-c3cnc(CC(C)(C)C)o3)cc2n1 [Example 37, 6-(2-(methoxy-methyl)imidazo-[1,2-a]pyridin-7-yl)-5-(2-neopentyl-oxazol-5-yl)picolino-nitrile]
15 | 93 nM | CC(C)(C)Cc1ncc(-c2ccc(C#N)nc2-c2cnc3c(c2)C(=O)N(CC2CC2)C3)o1 [Example 39, 6-(6-(cyclopropyl-methyl)-5-oxo-6,7-dihydro-5H-pyrrolo[3,4-b]-pyridin-3-yl)-5-(2-neopentyloxazol-5-yl)picolinonitrile]
16 | 46 nM | CC(CCc1ncc(-c2ccc(C#N)nc2-c2ccn3ccnc3c2)o1)C(F)(F)F (stereo not drawn) [Example 40, 6-(imidazo[1,2-a]-pyridin-7-yl)-5-(2-(4,4,4-trifluoro-3-methylbutyl)oxazol-5-yl)picolinonitrile]
17 | 45 nM | CN1Cc2ccc(-c3nc4c(cc3-c3cnc(CC5(C)CCCC5)o3)CCC4=O)cc2C1=O [Example 41, 2-(2-methyl-3-oxoisoindolin-5-yl)-3-(2-((1-methyl-cyclopentyl)-methyl)oxazol-5-yl)-5,6-dihydro-7H-cyclopenta[b]-pyridin-7-one]
18 | 65 nM | CC1(Cc2ncc(-c3cc4c(nc3-c3ccc5ccc(F)nc5c3)C(O)CC4)o2)CCCC1 (stereo not drawn) [Example 42, 2-(2-fluoroquinolin-7-yl)-3-(2-((1-methylcyclopentyl)methyl)oxazol-5-yl)-6,7-dihydro-5H-cyclopenta[b]pyridin-7-ol]
19 | 43 nM | CC1(Cc2ncc(-c3cc4c(nc3-c3ccc5ccc(F)nc5c3)C(=O)CC4)o2)CCCC1 [Example 43, 2-(2-fluoroquinolin-7-yl)-3-(2-((1-methylcyclopentyl)methyl)oxazol-5-yl)-5,6-dihydro-7H-cyclopenta[b]pyridin-7-one]
20 | 13 nM | Cc1ccc(-c2cnc(CC3CCCC3)o2)c(-c2ccc3c(c2)C(=O)N(C)C3)n1 [Example 46, 6-(3-(2-(cyclopentylmethyl)oxazol-5-yl)-6-methylpyridin-2-yl)-2-methylisoindolin-1-one]
21 | 24 nM | Cc1ccc(-c2cnc(Cc3ccccc3)o2)c(-c2ccc3cccnc3c2)n1 [Example 47, 2-benzyl-5-(6-methyl-2-(quinolin-7-yl)pyridin-3-yl)oxazole]
22 | 19 nM | COc1cc2ccc(-c3nc(C)ccc3-c3cnc(Cc4ccccc4F)o3)cc2nn1 [Example 48, 2-(2-fluorobenzyl)-5-(2-(3-methoxycinnolin-7-yl)-6-methylpyridin-3-yl)oxazole]
23 | 45 nM | Cn1cnc2cc(-c3nc(C(F)F)ccc3-c3cnc(CC4CCCC4)o3)cnc21 [Example 49, 2-(cyclopentylmethyl)-5-(6-(difluoromethyl)-2-(3-methyl-3H-imidazo[4,5-b]pyridin-6-yl)pyridin-3-yl) oxazole]
24 | 24 nM | N#Cc1ccc(-c2cnc(CC3CCCC3)o2)c(-c2ccc3cccnc3c2)n1 [Example 50, 5-(2-(cyclopentylmethyl)oxazol-5-yl)-6-(quinolin-7-yl)picolinonitrile]
25 | 42 nM | N#Cc1ccc(-c2cnc(CC3CCCC3)o2)c(-c2cnc3c(c2)C(=O)N(CC2CC2)C3)n1 [Example 51, 5-(2-(cyclopentylmethyl)oxazol-5-yl)-6-(6-(cyclopropylmethyl)-5-oxo-6,7-dihydro-5H-pyrrolo[3,4-b]pyridin-3-yl) picolinonitrile]
26 | 178 nM | O=C1c2cc(-c3nc4c(cc3-c3cnc(CC5CCCC5)o3)CCC4)cnc2CN1CC1CC1 [Example 52, 3-(3-(2-(cyclopentylmethyl)oxazol-5-yl)-6,7-dihydro-5H-cyclopenta[b]pyridin-2-yl)-6-(cyclopropylmethyl)-6,7-dihydro-5H-pyrrolo[3,4-b] pyridin-5-one]
27 | 153 nM | CN1Cc2ncc(-c3nc4c(cc3-c3cnc(CC5CCCC5)o3)CCC4)cc2C1=O [Example 53, 3-(3-(2-(cyclopentylmethyl)oxazol-5-yl)-6,7-dihydro-5H-cyclopenta[b]pyridin-2-yl)-6-methyl-6,7-dihydro-5H-pyrrolo[3,4-b] pyridin-5-one]
